Experimental findings from patent publication US20230190887A1, “TARGETING G3BP AGGREGATION TO PREVENT NEURODEGENERATION” (priority 2019, published 2023) are described below.

The test system of data set [1] is NMJs of TDPΔNLS MN-muscle co-cultures. In words: TMRE mitochondrial activity in in vitro NMJs. It counts as cell-based, mouse. As to conditions: 20 μM peptide in NMJ compartment. The method, then:
Muscles in co-culture were kept in BA medium for 7 days. To aid NMJ formation, media in all compartments was then replaced to poor neurobasal (PNB) medium, which contained only 1% P/S and 1% Glutamax. Doxycycline was applied to TDP-43ΔNLS cultures only at the proximal MN compartment, in a concentration of 0.1 μg/mL, immediately after plating and throughout the entire experimental timeline. For TDPΔNLS recovery experiments (FIGS. 7-8), Doxycline was […] at the proximal MN compartment after 5 DIV, and the cultures were grown until 11 DIV. For G3BP1 peptide treatment (FIG. 21 at i-j, FIG. 24 at f), 20 μM G3BP1 peptides were added exclusively to the distal compartment, starting after 7 DIV.
Mitochondrial membrane potential was assessed with Tetramethylrhodamine Ethyl, Ester (TMRE; Thermo Fisher) dye. Cultures were incubated with 20 nM TMRE for 30 min in CO2 incubator, then washed 3 times with culture medium. Images of TMRE labeled axons in the distal compartment of MFCs were acquired before and after cultures were treated with Anisomycin (40 μM) or NaAsO2 (250 μM), Cycloheximide (150 μM) in ×60 magnification. […] The intensity of TMRE fluorescence in axonal mitochondria was measured using FIJI, and the fraction of change post/pretreatment was calculated for each image field.

For data set [2], the system named is G3BP1-mCherry aggregates in DRG axons. In words: Live cell imaging of G3BP1-mCherry granules. The data set is classed as cell-based, rat. As to conditions: 10 μM peptide, 15 min. As to the method: Live cell imaging for G3BP1-mCherry granules. DRG neurons were transfected with G3BP1-mCherry, and 36 h later distal axons were imaged using Leica SP8X confocal microscope with environmental chamber maintained at 37° C., 5% CO2 (with 63×/1.4 NA oil immersion objective). G3BP1-mCherry signals were imaged as single optical planes in the axon shaft every 2 s for 100 frames (at 540 nm excitation and 23% white light laser power; 565-597 nm emission). To study the effect of the G3BP1 190-208 or 168-189 peptide, 10 μM FITC-conjugated peptide was added to the media and 15 min later imaging was continued.
For quantitation of G3BP1-mCherry aggregates density and size, a 100 μm of the axon shaft was considered (≥200 μm from cell body). Thresholding was applied to acquired image sequences using ImageJ to generate binary masks.
ImageJ particle analyzer was used for analysis. G3BP1 aggregates with area≥1 μm^2 were considered as SG-like structures. For analyzing the G3BP1 aggregate velocity, ImageJ Trackmate plug-in was used.

Data set [3] deals with E18 cortical neurons. In words: Axon growth of cortical neurons in microfluidic devices. The data set is classed as cell-based, rat. As to conditions: 10 μM peptide applied to axonal compartment at 3 DIV, assessed at 6 DIV. The method, then:
For cortical neuron cultures, E18 cortices were dissected in Hibernate E (BrainBits) and dissociated using the Neural Tissue Dissociation kit (Miltenyi Biotec). For this, minced cortices were incubated in a pre-warmed enzyme mix at 37° C. for 15 min; tissues were then triturated and applied to a 40 μm cell strainer.
After washing and centrifugation, neurons were seeded at a density of 1×10^5 cells per poly-D-lysine-coated microfluidic device (Xona Microfluidics). NbActive-1 medium (BrainBits) supplemented with 100 U/ml of Penicillin-Streptomycin (Life Technologies), 2 mM L-glutamine (Life Technologies), and 1×N21 supplement (R&D Systems) was used as culture medium.
For peptide treatments, 10 μM Tat-fused peptides were added to dissociated DRG cultures at 2 or 12 h after plating. Neurite outgrowth was assessed 24 h after addition of peptides. For the cortical cultures, 10 μM peptide was applied to the axonal compartment at 3 d in vitro (DIV) and axonal growth was assessed at 6 DIV. For iMotor neurons, 20 μM peptides were immediately added and neurite growth was assessed 24 h later.

The test system of data set [4] is primary MNs.
The subject of data set [5] is TIA1, G3BP1 and TDP43 granules in E12.5 motor neurons. The experiment in a line: Stress granule protein granules in neurites of arsenite-treated motor neurons. As to conditions: sodium arsenite 0.5 mM 30 minutes, then 10 μM peptide; for number of flag-TDP43 granules greater than 2 μm^2 per 100 μm of neurite: WT and ALS mutant flag-TDP43; for number of large TIA1-GFP granules (>2 μm^2) in neurites: WT and mutant TIA1-GFP. The data set is classed as cell-based, mouse. From the text: To further evaluate whether mutant TIA1 and TDP43 protein aggregates are affected by G3BP1 190-208 peptide, the inventors expressed the mutant proteins in embryonic motor neurons and assessed granules formed in neurites with or without arsenite treatment either in the presence of G3BP1 190-208 or control 168-189 peptide.
FIG. 6: Cell permeable G3BP1 190-208 peptide decreases granules formed by endogenous TIA1 and TDP43 and exogenous TDP43 and TIA1 mutants in motor neurons after sodium arsenite exposure. (A) Embryonic motor neurons isolated from E12.5 mouse embryos were exposed to sodium arsenite (0.5 mM) for 30 minutes and then treated with 10 μM 190- 208 or […] peptide. After fixation endogenous TIA1 was visualized by immunostaining. The number of TIA1 granules greater than 2 μm^2 per 100 μm of neurite were measured. (B) E12.5 motor neurons were treated as described in (A) and immunostaining was used to detect endogenous G3BP1 protein. The number of G3BP1 granules greater than 2 μm^2 per 100 μm of neurite were measured. […] (C) E12.5 motor neurons expressing TIA1-GFT or ALS/FTD-associated mutants TIA1-A381T, TIA1-E384K were treated with sodium arsenite (0.5 mM) for 30 minutes followed by treatment with either 10 μM 190-208 G3BP1 or 168-189 control peptide. The number of cells containing TIA1-GFP puncta were measured 2 μm^2 per 100 μm of neurite and results are reported relative to non-treated controls. The number of TIA1-GFP granules in neurites decreased for WT and ALS/FTD mutants after treatment with 190-208 G3BP1 as compared to the 168-189 control peptide treated cells. (I)) E12.5 motor neurons expressing flag-tagged wildtype TDP43 or ALS-associated mutants TDP43-M337V and TDP43-Q331.K were treated with sodium arsenite (0.5 mM) for 30 minutes followed by treatment with either 10 μM 190-208 G3BP1 or 168189 control peptide. Flag-TDP43 was detected by immunostaining using the anti-flag-antibody. The number of flag-TDP43 granules greater than 2 μm^2 were measured per 100 μm of neurite and the results are reported relative to non-treated controls. The number of Flag-TDP43 granules in neurites were decreased after treatment with 190-208 G3BP1 peptide as compared to the 168-189 control peptide in both WT and ALS/FTD mutants expressing cells. ([…] over 3 cultures; by two-way ANOVA with Tukey HSD post-hoc),

With “YGNKKNNNQNNN-VVEPEPEPEPEPEPEPVSE [G3BP1 190-208 peptide]”, the “pre-synaptic TMRE signal (mitochondria activity) in NMJs” value in data set [1] is “recovered”. In data set [2], the “density of axonal G3BP1-mCherry aggregates along 100 μm axon” value is given as “striking decrease”, the “motility of remaining G3BP1-mCherry aggregates” value was “greater motility” and the “size of G3BP1-mCherry aggregates (SG-like structures)” value is “significantly smaller”. In addition, the axon growth result in data set [3] is recorded as “significant increase in axon growth”. The “penetration into cell bodies and axons” value in data set [4] is listed as “penetration”. Besides, in data set [5], the “number of flag-TDP43 granules greater than 2 μm^2 per 100 μm of neurite” value is listed as “reversed”; the “number of large TIA1-GFP granules (>2 μm^2) in neurites” value is on record as “decrease in the number of large granules”; the “number of endogenous TIA1 and G3BP1 granules greater than 2 μm^2 per 100 μm of neurite” value is reported as “reverses the increase number of these larger granules”. Further, in data set [5] (listed as 190-208 G3BP1 peptide), the “number of flag-TDP43 granules greater than 2 μm^2 per 100 μm of neurite” value is on record as “decreased”. In addition, in data set [5] (listed as 190-208 G3BP1), the “number of large TIA1-GFP granules (>2 μm^2) in neurites” value is on record as “decreased”. In data set [5] (listed as 190-208), the “number of endogenous TIA1 and G3BP1 granules greater than 2 μm^2 per 100 μm of neurite” value was “significantly decreased levels of TIA1 and G3BP1 granules”.
